# Results reported in US8586638B2, “Parakeratosis inhibitor and skin preparation for external use” (priority 2003, dated 2013).
# Legend:
# [1] = system: skin roughness caused by oleic acid on the back of hairless mice; assay: Inhibitory effect on skin roughness by the application of oleic acid (TEWL value); format: in vivo, hairless mice (HR-1); design: ΔTEWL: unit not given here; settings: for decrease of delta-TEWL value as compared to the control solution (conclusion from Table 6): hairless mice, oleic acid, seventh embodiment; for ΔTEWL: after 10 weight % oleic acid, 3 days, four mice per group, control 12.0
# Procedure: To study the inhibitory effect on the skin roughness by the application of oleic acid by the glycine derivatives and the salts thereof as well as the aminosulfuric acid derivatives and the salts thereof in accordance with the invention 2, the […] (TEWL value) before and after the application was measured to compare the difference therebetween with the value of control (control solution) in order to determine the effect. The preparation of samples and the application procedure were in accordance with the embodiment 4. The TEWL value was measured by means of TEWA meter TM210 (Courage+Khazaka Inc.).
# 100 microliters of 10 weight % oleic acid (solvent: ethanol) was applied to the back of hairless mice (HR-1, four in each group). Thereafter, 100 microliters of sample solutions (glycine derivatives and the salts thereof as well as the aminosulfuric acid derivatives and the salts thereof) in accordance with the invention 2 were applied at each time. This procedure was repeated for 3 days. The day after the application, TEWL value of the back of mice was measured and the values were averaged. The larger delta-TEWL value indicates severer aggravation of skin roughness.
# [2] = system: parakeratosis and skin roughness caused by oleic acid on the back of hairless mice; assay: Parakeratosis inhibition effect test: oleic acid applied to the back of hairless mice, visual skin roughness and parakeratosis level; format: in vivo, hairless mice (HR-1); design: key to Evaluation Visual (mean of 4 mice), skin roughness: 0.0 = no roughness, 2.0 = control application; 0.25 steps; settings: for Evaluation Parakeratosis (mean of 4 mice) / Evaluation Visual (mean of 4 mice), skin roughness: Table 4; for Evaluation Parakeratosis (mean of 4 mice): control 2.0; for Evaluation Visual (mean of 4 mice), skin roughness: score 0.0 no roughness, 2.0 control; for effect of inhibiting parakeratosis (conclusion from Table 4): hairless mice, oleic acid, fourth embodiment
# Procedure: A 3 weight % water solution (including 30 weight % ethanol) was prepared as the evaluation specimen of the glycine derivatives in accordance with the invention 1. The pH was regulated to the range between 7.0 to 7.5, by using hydrochloric acid and sodium hydroxide. When the solubility was low, the solution was adjusted accordingly.
# 100 microliters of 10 weight % oleic acid (solvent: ethanol) was applied to the back of hairless mice (HR-1, Hoshino laboratory animals). Thereafter, 100 microliters of sample solution was applied (glycine derivatives in accordance with said invention 1) at each time. This procedure was repeated for 3 days. The day after the application, the skin condition of the backs was observed by using a CCD camera to evaluate the skin roughness (stratified ablation of the skin surface stratum corneum and red spots). The skin condition was evaluated visually, with scoring the skin condition of control application to 2.0 and the skin condition of no roughness to 0.0, in a 0.25 point step in response to the skin condition. At the same time, the skin surface stratum corneum of the back of hairless mice was peeled off by using a tape for staining the nucleus with haematoxylin to observe the degrees of parakeratosis (parakeratosis level) and evaluate in 0.25 step in the range from 1.0 to 3.0. The higher evaluation points indicates the larger number of parakeratotic corneocytes count, i.e., severer parakeratosis.
# The samples to be evaluated of the glycine derivatives and the salts thereof as well as the aminosulfuric acid derivatives and the salts thereof in accordance with the invention 2 were prepared mainly 3 weight % solution (including 30 weight % ethanol, excluding Hydantoic acid and ACES which include 20 weight % ethanol). pH was regulated by using hydrochloric acid or sodium hydroxide to be 7.0 to 7.5. When the solubility was low, then the solution was prepared accordingly.
# 100 microliters of 10 weight % oleic acid (solvent: ethanol) was applied to the back of Hairless mice (HR-1, Hoshino laboratory animals) Thereafter, 100 microliters of sample solution (glycine derivatives in accordance with the invention 2) was applied thereon at each time. This procedure was repeated for 3 days. The day after the application, the skin condition of the backs was observed by using a CCD camera to evaluate the skin roughness (stratified ablation of the skin surface stratum corneum and red spots). The skin condition was evaluated visually, with scoring the skin condition of control application to 2.0 and the skin condition of no roughness to 0.0, in a 0.25 point step in response to the skin condition. At the same time, the skin surface stratum corneum of the back of hairless mice was peeled off by using a tape for staining the nucleus with haematoxylin to observe the degrees of parakeratosis and evaluate in 0.25 step in the range from 1.0 to 3.0. The higher evaluation points indicates the larger number of parakeratotic corneocytes count, i.e., severer parakeratosis.
# [3] = system: pores on the cheek of healthy male subjects; assay: Effect of shrinking human pores: replica evaluation of cheek pores; format: in vivo; settings: for Replica Evaluation (mean of n = 5), difference of pore size score before/after application: Table 5, twice a day for a month, cheek, control 0.3; for effect of pore-shrinking (conclusion from Table 5): human cheek, fifth embodiment
# Procedure: An experiment of application of sample twice a day for a month on the cheek of healthy male subjects, was conducted with each group consisting of 5 individuals. 3 weight % solution of the glycine derivatives in accordance with the invention 1 (including 15 weight % of ethanol) was prepared. pH was regulated to the range between 7.0 and 7.5, by using hydrochloric acid and/or sodium hydroxide. Control was 15 weight % ethanol solution. Said 3 weight % solution was applied to one side and said control solution was applied to the other side.
# Replicas were prepared prior to and after the application to observe the change of form of pores in the same spot under a three-dimensional laser scanning microscope. The size of pores was evaluated visually 13 steps from 1 to 13 (larger number indicates larger pore size), and the difference between the resulted evaluations before/after the application experiment was then calculated to study the effectiveness of each specimen.
# An experiment of application of sample twice a day for a month on the cheek of healthy male subjects, was conducted with each group consisting of 5 individuals. 3 weight % solution of the glycine derivatives and the salts thereof as well as the aminosulfuric acid derivatives and the salts thereof in accordance with the invention 2 (including 15 weight % of ethanol), 2 weight % solution of ACES (including 15 weight % of ethanol), 3 weight % solution of CAPS (including 15 weight % of ethanol), and 3 weight % solution of CAPSO (including 15 weight % of ethanol) were prepared. pH was regulated to the range between 7.0 and 7.5, by using hydrochloric acid and/or sodium hydroxide. 15 weight % ethanol solution was used as control. Said sample solutions was applied to one side, and said control solution was applied to the other side.
# [4] = sample 3 weight %, larger = severer roughness
# [5] = sample 3 weight % in aqueous 30 weight % ethanol (hydantoic acid: 20 weight % ethanol), range 1.0 to 3.0, higher = severer
# [6] = sample 3 weight % in aqueous 30 weight % ethanol (hydantoic acid: 20 weight % ethanol)
# [7] = 3.0 weight % solution (15 weight % ethanol)
Compound,decrease of delta-TEWL value as compared to the control solution (conclusion from Table 6) [1],ΔTEWL ([1]; sample 1 weight %),"Evaluation Parakeratosis (mean of 4 mice) ([2]; sample 1 weight % in aqueous 30 weight % ethanol (ACES: 20 weight % ethanol), range 1.0 to 3.0)","Evaluation Visual (mean of 4 mice), skin roughness ([2]; sample 1 weight % in aqueous 30 weight % ethanol (ACES: 20 weight % ethanol))",effect of inhibiting parakeratosis (conclusion from Table 4) [2],"Replica Evaluation (mean of n = 5), difference of pore size score before/after application ([3]; 2.0 weight % solution (15 weight % ethanol))",effect of pore-shrinking (conclusion from Table 5) [3],"ΔTEWL [1, 4]","Evaluation Parakeratosis (mean of 4 mice) [2, 5]","Evaluation Visual (mean of 4 mice), skin roughness [2, 6]","Replica Evaluation (mean of n = 5), difference of pore size score before/after application [3, 7]"
"NC(=O)CNCCS(=O)(=O)O [ACES, N-(2-acetamide)-2-aminoethanesulfonic acid]",significant decrease of delta-TEWL value,6.9,1.2,1.4,have the effect of inhibiting parakeratosis,−1.5,demonstrated the effect of pore-shrinking,–,–,–,–
NC(=O)NCC(=O)O [hydantoic acid],significant decrease of delta-TEWL value,–,–,–,have the effect of inhibiting parakeratosis,–,demonstrated the effect of pore-shrinking,8.0,1.3,1.4,−0.8
O=C(O)CNc1ccccc1 [N-phenylglycine],significant decrease of delta-TEWL value,–,–,–,have the effect of inhibiting parakeratosis,–,demonstrated the effect of pore-shrinking,7.9,1.2,1.3,−1.0
"O=S(=O)(O)CCCNC1CCCCC1 [CAPS, 3-(cyclohexyl-amino)propane sulfonic acid]",significant decrease of delta-TEWL value,–,–,–,have the effect of inhibiting parakeratosis,–,demonstrated the effect of pore-shrinking,8.1,1.2,1.3,−1.4
"O=S(=O)(O)CC(O)CNC1CCCCC1 (centres unmarked) [CAPSO, 3-(cyclohexyl-amino)-2-hydroxy-propane-sulfonic acid]",significant decrease of delta-TEWL value,–,–,–,have the effect of inhibiting parakeratosis,–,demonstrated the effect of pore-shrinking,7.9,1.1,1.3,−1.6
